We go through 2 compounds from US20230143604A1, “QW DOSING OF GIP RECEPTOR AGONIST PEPTIDE COMPOUNDS AND USES THEREOF” (TAKEDA PHARMACEUTICAL COMPANY LIMITED, priority 2020, published 2023).

Broadly, the solubility is the dissolved amount per volume that the medium holds. Low readings indicate little dissolved substance, high ones much dissolved substance.

Starred links: 1 amine or outer side, 2 acyl side, 3 side chain; linkers in the order of their positions; H or OH if unused. Non-standard residues stand in square brackets, D forms with d. Residues, ends and D or L forms follow the SMILES beside them. Groups on a side chain read outwards from the residue. *: point of attachment. C18 diacid = O=C(O)CCCCCCCCCCCCCCCCC(=O)*; C17 diacid = O=C(O)CCCCCCCCCCCCCCCC(=O)*; γGlu = O=C(O)[C@H](CCC(=O)[*:2])N[*:1]; NMeY = CN[C@@H](Cc1ccc(O)cc1)C(=O)O; AEEA = NCCOCCOCC(=O)O; Aib = CC(C)(N)C(=O)O

This data set is described as follows: physchem. In a few lines: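 Solubility at pH 7.4 determined by stepwise addition of 200 mM phosphate buffer in 100 μL increments to 3 mg peptide, mixing briefly each time, until no insoluble material remained, then measured by liquid chromatography.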

Consider `CC[C@H](C)[C@H](NC(=O)[C@H](Cc1ccccc1)NC(=O)[C@@H](NC(=O)CNC(=O)[C@H](CCC(=O)O)NC(=O)C(C)(C)NC(=O)[C@H](Cc1ccc(O)cc1)NC)[C@@H](C)O)C(=O)N[C@@H](CO)C(=O)N[C@@H](CC(=O)O)C(=O)N[C@@H](Cc1ccc(O)cc1)C(=O)N[C@@H](CO)C(=O)N[C@H](C(=O)NC(C)(C)C(=O)N[C@@H](CC(C)C)C(=O)N[C@@H](CC(=O)O)C(=O)N[C@@H](CCCNC(=N)N)C(=O)N[C@@H](CCCCNC(=O)COCCOCCNC(=O)COCCOCCNC(=O)CC[C@H](NC(=O)CC[C@H](NC(=O)CCCCCCCCCCCCCCCC(=O)O)C(=O)O)C(=O)O)C(=O)N[C@@H](C)C(=O)N[C@@H](CCC(N)=O)C(=O)NC(C)(C)C(=O)N[C@@H](CC(N)=O)C(=O)N[C@@H](Cc1ccccc1)C(=O)N[C@H](C(=O)N[C@@H](CC(N)=O)C(=O)N[C@@H](Cc1c[nH]c2ccccc12)C(=O)N[C@@H](CC(C)C)C(=O)N[C@@H](CC(C)C)C(=O)N[C@@H](C)C(=O)N[C@@H](CCC(N)=O)C(=O)N[C@@H](CCCNC(=N)N)C(=O)NCC(=O)NCC(=O)NCC(=O)NCC(=O)N[C@@H](CO)C(N)=O)C(C)C)[C@@H](C)CC` [Compound 271] (H-[NMeY][Aib]EGTFISDYSI[Aib]LDRK([AEEA-AEEA-γGlu-γGlu-C17 diacid])AQ[Aib]NFVNWLLAQRGGGGS-NH2), for which the solubility (pH 7.4, aqueous buffer) was no less than 6 mg/mL. As for `CC[C@H](C)[C@H](NC(=O)[C@H](Cc1ccccc1)NC(=O)[C@@H](NC(=O)CNC(=O)[C@H](CCC(=O)O)NC(=O)C(C)(C)NC(=O)[C@H](Cc1ccc(O)cc1)NC)[C@@H](C)O)C(=O)N[C@@H](CO)C(=O)N[C@@H](CC(=O)O)C(=O)N[C@@H](Cc1ccc(O)cc1)C(=O)N[C@@H](CO)C(=O)N[C@H](C(=O)NC(C)(C)C(=O)N[C@@H](CCCCNC(=O)COCCOCCNC(=O)COCCOCCNC(=O)CC[C@H](NC(=O)CC[C@H](NC(=O)CCCCCCCCCCCCCCCCC(=O)O)C(=O)O)C(=O)O)C(=O)N[C@@H](CC(=O)O)C(=O)N[C@@H](CCCNC(=N)N)C(=O)NC(C)(C)C(=O)N[C@@H](C)C(=O)N[C@@H](CCC(N)=O)C(=O)NC(C)(C)C(=O)N[C@@H](CC(N)=O)C(=O)N[C@@H](Cc1ccccc1)C(=O)N[C@H](C(=O)N[C@@H](CC(N)=O)C(=O)N[C@@H](Cc1c[nH]c2ccccc12)C(=O)N[C@@H](CC(C)C)C(=O)N[C@@H](CC(C)C)C(=O)N[C@@H](C)C(=O)N[C@@H](CCC(N)=O)C(=O)N[C@@H](CCCNC(=N)N)C(=O)N1CCC[C@H]1C(=O)N[C@@H](CO)C(=O)N[C@@H](CO)C(=O)NCC(=O)N[C@@H](C)C(=O)N1CCC[C@H]1C(=O)N1CCC[C@H]1C(=O)N1CCC[C@H]1C(=O)N[C@@H](CO)C(N)=O)C(C)C)[C@@H](C)CC` [Compound 28] (H-[NMeY][Aib]EGTFISDYSI[Aib]K([AEEA-AEEA-γGlu-γGlu-C18 diacid])DR[Aib]AQ[Aib]NFVNWLLAQRPSSGAPPPS-NH2), the solubility runs as follows: (pH 7.4, aqueous buffer, pH 7.4 Phosphate Buffer - Solubility, 200 mM Phosphate buffer pH 7.4) no less than 30 mg/mL; (pH 7.4, solubility in phosphate buffer at pH 7.4, 200 mM phosphate buffer pH 7.4) no less than 15 mg/mL.
